{
  "source": "PubChem BioAssay AID2305",
  "about": "(GlaxoSmithKline (GSK), 2010)",
  "data": [
    {"system": "P. falciparum 3D7 growth, pLDH absorbance", "assay": "blood-stage malaria parasite growth potency – strain 3D7, dose response (AID 2305)", "units": {"IC50": "nM"}, "values": [
      {"smiles": "CCN1CCN(C(=O)NC(C(=O)N(C)Cc2ccc(-c3ccc(C(F)(F)F)cc3)cc2)c2cccs2)C(=O)C1=O", "note": "(stereo unspecified)", "IC50": 360},
      {"smiles": "CO/N=C(\\C)c1ccc2c(c1)CCN(CCC1CCC(NC(=O)c3cccc(-c4noc(C)n4)c3)CC1)CC2", "note": "(stereo unspecified)", "IC50": 240},
      {"smiles": "O=C(/C=C/c1ccc(Cl)c(Cl)c1)NCCCCCN1CCC(NC(=O)Nc2ccccc2F)CC1", "IC50": 840},
      {"smiles": "COc1ccc(NC(=O)C2c3ccccc3C(=O)N(C3CCCC3)C2c2cccs2)cc1", "note": "(stereo unspecified)", "IC50": 1710},
      {"smiles": "Cc1cc(Nc2ccccc2)nc(Nc2ccccc2C)n1", "IC50": 1040},
      {"smiles": "CCCCCCCCCCN1C(=O)C2C(CCCCNC(C)=O)NC3(C(=O)N(Cc4ccc(C(C)(C)C)cc4)c4ccccc43)C2C1=O", "note": "(stereo unspecified)", "IC50": 990},
      {"smiles": "CS(=O)(=O)Nc1ccc2[nH]cc(C3CCN(CC4CCC(NC(=O)/C=C/c5ccc(Cl)c(Cl)c5)CC4)CC3)c2n1", "note": "(stereo unspecified)", "IC50": 780},
      {"smiles": "COc1cccc(NC(=O)Cn2c(C)c(C(=O)C(F)(F)F)c3ccccc32)c1", "IC50": 830},
      {"smiles": "C[C@H](Cc1ccc(OCCCCCCOc2ccc(C[C@@H](C)N[C@H](C)c3ccccc3)cc2)cc1)NC[C@H](O)c1cccc(Cl)c1", "IC50": 240},
      {"smiles": "CC(C)C(C)(C#N)NC(=O)CSc1nc2ccc([N+](=O)[O-])cc2s1", "note": "(stereo unspecified)", "IC50": 1030},
      {"smiles": "NC1CCN(Cc2cccc(-c3ccc(-c4nc5ccc(C(F)(F)F)cc5[nH]4)cc3)c2)C1", "note": "(stereo unspecified)", "IC50": 700},
      {"smiles": "COc1ccc(CNC(=O)c2cnc3c(O)cccc3c2Nc2cccc(NC(=O)c3ccc(-c4ccccc4)cc3)c2)cc1", "IC50": 940},
      {"smiles": "O=c1cc(NCCCNC2CCOc3c(Cl)cccc32)[nH]c2ccccc12", "note": "(stereo unspecified)", "IC50": 830},
      {"smiles": "COC(=O)c1cccc(CNCc2cccc(-c3cccc(-c4nc5ccccc5[nH]4)c3)c2)c1", "IC50": 500},
      {"smiles": "Cc1noc(C)c1-c1ccc2c(Nc3ccc(Cl)cc3)c(C(N)=O)cnc2c1", "IC50": 830},
      {"smiles": "COC(=O)c1ccc2nc(-c3ccc(C(=O)NCc4ccc(Cl)c(Cl)c4)cc3)[nH]c2c1", "IC50": 850},
      {"smiles": "CN(Cc1ccccc1)C1CCCN(c2cc(NC(=O)c3ccc(F)cc3)ccn2)C1", "note": "(stereo unspecified)", "IC50": 990},
      {"smiles": "Cc1[nH]c(C)c(-c2ccc(OCc3ccccc3C(F)(F)F)nc2)c(=O)c1Br", "IC50": 20},
      {"smiles": "O=C(/C=C/c1ccc(-c2ccccc2)cc1)NCCCCCN1CCC(c2c[nH]c3ccccc23)CC1", "IC50": 850},
      {"smiles": "CCOc1cc(C(=O)NCc2cc(Cl)cc(Cl)c2)ccc1-c1nc2ccc(Cl)cc2[nH]1", "IC50": 730},
      {"smiles": "O=C(NC1CCCCC1)N(Cc1cccc(-c2ccc(CNCCc3ccccc3)cc2)c1)C1CCN(Cc2ccccc2)CC1", "IC50": 650},
      {"smiles": "Cc1cccc2[nH]c(-c3ccc(-c4cccc(CNCC5CCCO5)c4)s3)nc12", "note": "(stereo unspecified)", "IC50": 970},
      {"smiles": "O=S1(=O)C=C(c2ccccc2)CC1", "IC50": 200},
      {"smiles": "Cc1cccc2[nH]c(-c3cccc(-c4ccc(NC(=O)CN5CCOCC5)cc4)c3)nc12", "IC50": 1050},
      {"smiles": "Cc1ccc(NC(=S)NC2CCN(CCCCCNC(=O)/C=C/c3ccc(Cl)c(Cl)c3)CC2)cc1Cl", "IC50": 990},
      {"smiles": "CCOC(=O)c1cc(C(=O)NCCCCN2CCC(c3cn(C)c4ccccc34)CC2)ccc1-c1ccc(C(F)(F)F)cc1", "IC50": 1200},
      {"smiles": "OC(CNC1CCCCC1)Cn1c2ccc(I)cc2c2cc(I)ccc21", "note": "(stereo unspecified)", "IC50": 340},
      {"smiles": "O=c1cc(NCCCNC2CCOc3c(Cl)cc(Cl)cc32)[nH]c2ccccc12", "note": "(stereo unspecified)", "IC50": 720},
      {"smiles": "O=C(Nc1ccc(-c2cccc(-c3nc4ccc(F)cc4[nH]3)c2)cc1)c1cnn2cccnc12", "IC50": 650},
      {"smiles": "CCn1c(-c2nc(-c3ccc4c(c3)OCO4)cnc2N)nc2cnccc21", "IC50": 430},
      {"smiles": "COc1cc2nc(N3CCC(NC(=O)c4cccc(N(C)C)c4)CC3)nc(N)c2cc1OC", "IC50": 610},
      {"smiles": "COc1ccc(N2C(=O)c3c(c4ccccc4n3C)C2c2ccccc2O)cc1", "note": "(stereo unspecified)", "IC50": 120},
      {"smiles": "COc1ccc(C(=O)N2CCC3(CC2)C(=O)N(CC(=O)NC2CCCCC2)CN3c2ccccc2)c(OC)c1", "IC50": 220},
      {"smiles": "Nc1cccc(CNCc2cccc(-c3cccc(-c4nc5ccc(F)cc5[nH]4)c3)c2)c1", "IC50": 690},
      {"smiles": "COc1ccc2nc(-c3cc(-c4ccc(NC(=O)CN5CCOCC5)cc4)cnc3N)[nH]c2c1", "IC50": 620},
      {"smiles": "COc1ccc2nccc([C@@H](O)CN3CCC(NCc4cc5cccc6c5n(c4=O)CCC6)CC3)c2c1", "IC50": 860},
      {"smiles": "Cc1ccc(Nc2nc3cc(Nc4ccnc(Nc5cccc(CS(C)(=O)=O)c5)n4)ccc3o2)cc1", "IC50": 920},
      {"smiles": "N#Cc1ccc(-c2ccc(C(=O)NCCCCN3CCC(c4cc(Br)c5c(c4OCC(N)=O)CCCC5)CC3)cc2)cc1", "IC50": 800},
      {"smiles": "COc1cc(NC(=O)c2ccc3c(=O)n(Cc4ccccc4)c(=S)[nH]c3c2)cc(OC)c1OC", "IC50": 740},
      {"smiles": "Cc1cccc(CN2CCC(C(=O)Nc3ccc(-c4nc5ccccc5[nH]4)cc3)CC2)n1", "IC50": 920},
      {"smiles": "Cc1cccc2[nH]c(-c3cccc(-c4cccc(NC(=O)N[C@@H]5C[C@H]5c5ccccc5)c4)c3)nc12", "IC50": 710},
      {"smiles": "COc1ccccc1CN1CCC(CNC(=O)c2cc(-c3ccc(N(C)C)cc3)cs2)C1", "note": "(stereo unspecified)", "IC50": 1270},
      {"smiles": "O=C(c1ccccc1)[C@H]1C[C@@H]1CN1CC=C(c2c[nH]c3ccccc23)CC1", "IC50": 530},
      {"smiles": "CNCCNCc1ccc(-c2ccc(-c3nc4ccc(C(F)(F)F)cc4[nH]3)s2)cc1", "IC50": 600},
      {"smiles": "O=C(NC1CCN(c2ccnc3ccccc23)C1)c1cccc(C(F)(F)F)c1", "note": "(stereo unspecified)", "IC50": 900},
      {"smiles": "CC(C)(CNCc1ccc(Cl)cc1)c1nc(-c2ccc(Cl)c(O)c2)c(-c2ccncc2)[nH]1", "IC50": 480},
      {"smiles": "COc1ccc2nc(-c3ccccc3)cc(NCCCNc3cc(-c4ccccc4)nc4ccc(OC)cc34)c2c1", "IC50": 120},
      {"smiles": "O=c1cc(NCCCNCc2cc(C(F)(F)F)ccc2F)[nH]c2ccccc12", "IC50": 830},
      {"smiles": "O=C(Nc1ccc2c(c1)CCNCC2)c1ccc(-c2ccc(Cl)cc2)cc1", "IC50": 810},
      {"smiles": "CCn1c(=O)c(C(=O)Nc2cc(Cl)c(OC)cc2OC)nc2ccccc21", "IC50": 240},
      {"smiles": "CCCC(C)Nc1nc(C)cc(N[C@@H](Cc2ccccc2)C(=O)NCCc2ccccc2)n1", "note": "(stereo partly specified)", "IC50": 950},
      {"smiles": "CCOc1ccc2c(NN=Cc3cccc(OC)c3OC)cc(C)nc2c1", "IC50": 900},
      {"smiles": "COc1ccccc1CCNC(=O)c1cnc(N2CCN(c3ccncc3)CC2)c(Cl)c1", "IC50": 1150},
      {"smiles": "Cc1ccc(CCOCCCCCNCC(O)c2cc(Cl)c(N)c(Cl)c2)cc1", "note": "(stereo unspecified)", "IC50": 950},
      {"smiles": "CC(C)(C)c1ccc(NC(=O)c2cccc(CN3CCN(Cc4cccc(O)c4)CC3)c2)cc1", "IC50": 1400},
      {"smiles": "CO/C(=C\\C=C/c1cc2cc(Cl)c(Cl)cc2[nH]1)C(=O)NC1CC(C)(C)N(C)C(C)(C)C1", "IC50": 830},
      {"smiles": "CCNc1cc(C(=O)N[C@@H](Cc2ccccc2)[C@H](O)CN[C@H]2C[C@@H]3CC[C@H]2C3)cc(N2CCCCS2(=O)=O)c1", "IC50": 240},
      {"smiles": "CCN1CCC(N(Cc2ccc(-c3ccc(C(F)(F)F)cc3)cc2)C(=O)Cn2c(CCc3cccc(F)c3F)nc(=O)c3ccccc32)CC1", "IC50": 1060},
      {"smiles": "COc1ccc(N2CCN(CCCOc3ccc(NC(=O)c4cc(Cl)cc(Cl)c4)cc3)CC2)c(OC)c1", "IC50": 900},
      {"smiles": "N#Cc1cc(C(=O)c2cc(Br)ccc2O)cn(C2CCCCC2)c1=O", "IC50": 910},
      {"smiles": "O=C1SC(=Cc2ccc(O)c(O)c2)C(=O)N1c1ccccc1", "IC50": 1200},
      {"smiles": "Cc1cc(OCCCNc2nc(NCCc3ccc(O)cc3)nc(N3CCNCC3)n2)c(Cl)c(C)c1Cl", "IC50": 960},
      {"smiles": "CCN(CC)CCN(Cc1ccc(-c2ccc(C(F)(F)F)cc2)cc1)C(=O)Cn1c(CCc2ccc(F)c(F)c2)nc(=O)c2ccccc21", "IC50": 1580},
      {"smiles": "Cc1cc(C(=O)CN2C(=O)NC3(CCOc4ccccc43)C2=O)c(C)n1Cc1ccco1", "note": "(stereo unspecified)", "IC50": 610},
      {"smiles": "CC(C)CN(c1nc(C(=O)NNC(=O)[C@H](CC2CC2)NC(=O)c2cc3cc(OCCN(C)C)ccc3o2)cs1)C1CC1", "IC50": 1030},
      {"smiles": "O=C(c1ccc(-c2ccc(-c3nc4ccc(C(F)(F)F)cc4[nH]3)s2)cc1)N1CCN(CCc2ccccc2)CC1", "IC50": 590}
    ]}
  ]
}
